2 compounds from patent US20250079000A1, “METHODS AND MARKERS FOR DIAGNOSIS OF PARKINSON'S DISEASE” (Berg LLC, priority 2021, published 2025) can be followed below.

A short description of series [1]: Stability of NAP spiked in human plasma (short-term, long-term, freeze-thaw, re-injection). The class given is in vitro ADME. From the text: (§1) Detection and Quantitation of NAP using LC-MS/MS. To quantify NAP in human K2-EDTA plasma, the quantification method using LC-MS/MS was developed. Due to low circulating levels of NAP, the sensitivity of quantification was improved using derivatization of isobutyl chloroformate in the sample preparation. The validation performance of the NAP assay is summarized in Table 8-15, including linearity, precision, matrix effect, system suitability, short-term stability, long-term stability, and reproducibility in the autosampler. […] The results of validation assessed by QCs met acceptance criteria (Table 9-15).

The nature of series [2]: Short-term and long-term stability of NAP spiked in 2.5% BSA standard solution. The format is physicochemical. To be noted: for Bias %, long-term stability: LTS (88 days, −80 C.); for Bias %, short-term stability: STS (24 hrs, 5 C.).
From the text: as §1

Series [3] in a line: NCAM short-term stability in plasma QC samples. The class given is in vitro ADME, human. The conditions noted are these: HQC, MQC, LQC; 4° C. and 24° C.; 2, 4 and 24 hours; acceptance criteria −25% to 25%. The method, then: In the short-term stability test, three levels of QC samples were thawed from the −80° C. freezer and incubated at 4° C. or RT (18-24° C.) for 2, 4 or 24 h. The samples were then assayed and compared with samples freshly thawed from the −80° C. freezer and assayed along with the samples incubated at different conditions on the day of the assay.
Precision analyses were performed at high, medium and low concentrations (HQC, MQC, and LQC, respectively). For each concentration, twelve experiments were performed. […] Accuracy analyses were performed at two concentrations of NCAM: 10,000 pg/mL and 2,000 pg/mL. Five experiments were performed at each concentration. Recovery percentages for all experiments at both concentrations (FIG. 28C) were within the acceptance criteria of greater than or equal to 80% and less than or equal to 120%. Parallelism analyses were performed using six individual plasma samples at four dilutions. Recovery percentages (FIG. 28D) were within the acceptance criteria of greater than or equal to 75% and less than or equal to 125% for all samples tested at each of the four dilutions. Short-term stability analyses were performed at two temperatures: 4° C. and 24° C. For each temperature, high, medium and low concentration samples (HQC, MQC, and LQC, respectively) were maintained at 2 hours, 4 hours, and 24 hours.

[4] abbreviates: HQC, expected value 54.2 ng/mL, acceptable range 27.8-80.7.
Where [5] appears, read: LQC, expected value 3.2 ng/mL, acceptable range 2.33-4.03.

`CC(=O)NCCCCN` [NAP, N-acetyl putrescine]: in series [1] (setting [4]), the “Mean concentration, freeze-thaw stability (4x)” value worked out at 42.4 ng/mL; the “Mean concentration, long-term stability (84 days, −80° C.)” value is given as 63.4 ng/mL; the “Mean concentration, re-injection stability in autosampler (8 days)” value was determined as 46.5 ng/mL; the “Mean concentration, short-term stability (24 h, RT)” value stood at 41.0 ng/mL. In addition, in series [1] (setting [5]), the “Mean concentration, freeze-thaw stability (4x)” value stood at 3.1 ng/mL; the “Mean concentration, long-term stability (84 days, −80° C.)” value is 3.2 ng/mL; the “Mean concentration, re-injection stability in autosampler (8 days)” value came out at 3.2 ng/mL; the “Mean concentration, short-term stability (24 h, RT)” value worked out at 3.1 ng/mL. For the same compound, in series [2] (L1, 1.0 ng/mL), the “Bias %, long-term stability” value stood at 10.6% and the “Bias %, short-term stability” value is given as −3.6%. In addition, the “Bias %, long-term stability” value in series [2] (L8, 85.0 ng/mL) is reported as −8.1%. The “Bias %, short-term stability” value in series [2] (substock, 2000 ng/mL) is listed as −6.7%.

As to “P13591 (NCAM): Neural Cell Adhesion Molecule 1, cell adhesion protein, Uniprot P13591”, the “Short-term stability of plasma samples” value in series [3] was “within acceptance criteria”.
